From patent US10034886B2, “GLP-1 receptor modulators” (Celgene International II SÀRL, priority 2014, dated 2018)

Each compound was assayed against T1, GLP-1R (Homo sapiens, UniProt P43220) (assay: EC20 GLP-1(9-36) PAM cAMP assay: dose response of compound in the presence of fixed concentration of GLP-1(9-36)). Settings: GLP-1R CRE-bla CHO-K1 cells, compound dose response with fixed concentration of GLP-1(9-36), read-out: EC20 GLP-1(9-36) PAM EC50.
T1 construct: host or cells: GLP-1R CRE-bla CHO-K1 cells
Format: cell-based
Outline: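 Positive allosteric modulation read as cAMP accumulation: compound titrations (12 points) combined with an EC20 level of GLP-1(9-36) on CHO-K1 GLP-1R CRE-bla cells, IBMX present, 30 min, 37 °C, pH 7.4 buffer. Luminescence converted to cAMP via standards; non-linear fit gave EC50 and Emax.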

T1 sequence (P43220 24-463): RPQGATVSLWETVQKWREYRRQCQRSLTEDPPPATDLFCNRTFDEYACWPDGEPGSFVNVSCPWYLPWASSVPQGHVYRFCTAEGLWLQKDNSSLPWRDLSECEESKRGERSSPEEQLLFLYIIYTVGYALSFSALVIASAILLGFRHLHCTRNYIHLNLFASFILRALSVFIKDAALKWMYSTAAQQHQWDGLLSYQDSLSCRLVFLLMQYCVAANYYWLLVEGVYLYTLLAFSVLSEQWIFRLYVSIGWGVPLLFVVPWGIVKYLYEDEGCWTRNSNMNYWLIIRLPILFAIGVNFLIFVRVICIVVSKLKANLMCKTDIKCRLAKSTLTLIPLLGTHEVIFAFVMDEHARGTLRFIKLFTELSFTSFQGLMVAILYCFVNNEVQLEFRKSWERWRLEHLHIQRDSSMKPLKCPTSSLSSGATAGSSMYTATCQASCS
T1 sequence (P01275 100-127 partner limits assumed): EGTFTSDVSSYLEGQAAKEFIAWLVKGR

| SMILES | EC50 [nM] |
| --- | --- |
| C[C@@H](NC(=O)[C@H](Cc1ccc(-c2ncc(-c3ccc(-c4cccc(C(F)(F)F)c4)cc3)cn2)cc1)NC(=O)c1ccc(C(C)(C)C)s1)C(=O)O [Compound 1319] | 5000 to 10000 |
| C[C@@H](NC(=O)[C@H](Cc1ccc(-c2ncc(/C=C/c3ccccc3C(F)(F)F)cn2)cc1)NC(=O)c1ccc(C(C)(C)C)s1)C(=O)O [Compound 1260] | 800 to 2500 |
| CCCc1ccc(-c2ccc(-c3cnc(-c4ccc(C[C@H](NC(=O)c5ccc(CC)s5)C(=O)N5CC(C(=O)O)C5)cc4)nc3)c(F)c2)cc1 [Compound 1397] | < 800 |
| CCC[C@H]1CC[C@H](C2CCN(c3cnc(-c4ccc(CC(NC(=O)c5ccc(C(C)(C)C)s5)C(=O)NS(=O)(=O)CC(=O)OC)cc4)nc3)CC2)CC1 (some centres unmarked) [Compound 1543] | < 800 |
| CC(C)(C)c1ccc(C(=O)N[C@@H](Cc2ccc(-c3ccc(-n4c5ccccc5c5ccccc54)cc3)cc2)C(=O)O)s1 [Compound 1440] | 5000 to 10000 |
| C[C@@H](NC(=O)[C@H](Cc1ccc(-c2ncc(-c3ccc(-c4ccccc4)nc3)cn2)cc1)NC(=O)c1ccc(C(C)(C)C)s1)C(=O)O [Compound 1303] | 5000 to 10000 |
| Cc1ccc(C2CCN(c3cnc(-c4ccc(C[C@H](NC(=O)c5ccc(C(C)(C)C)s5)C(=O)N5CC(C(=O)O)C5)cc4)nc3)CC2)cc1 [Compound 1430] | < 800 |

Now from value to compound:

| EC50 [nM] | SMILES |
| --- | --- |
| < 800 | C[C@@H](NC(=O)[C@H](Cc1ccc(-c2ncc(/C=C/CCCCc3ccccc3)cn2)cc1)NC(=O)c1ccc(C(C)(C)C)s1)C(=O)O [Compound 1253] |
| 800 to 2500 | CC(C)C1CCN(c2cnc(-c3ccc(CC(NC(=O)c4ccc(C(C)(C)C)s4)C(=O)N4CC(C(=O)O)C4)cc3)nc2)CC1 (centres unmarked) [Compound 1422] |
| < 800 | CC(C)(C)c1ccc(C(=O)N[C@@H](Cc2ccc(-c3ncc(-c4ccc(-c5ccc(C(F)(F)F)cc5)cc4F)cn3)cc2)C(=O)O)s1 [Compound 1364] |
| 2500 to 5000 | CC(C)CCCOc1ccc(-c2cnc(-c3ccc(C[C@H](NC(=O)Cc4csc(C(C)(C)C)n4)C(=O)N4CC(C(=O)O)C4)cc3)nc2)cc1 [Compound 1244] |
| 800 to 2500 | CC(C)(C)c1ccc(C(=O)N[C@@H](Cc2ccc(-c3ncc(N4CCC(c5cccc(C(F)(F)F)c5)CC4)cn3)cc2)C(=O)N2CC(C(=O)O)C2)s1 [Compound 1482] |

Same assay, conditions: dose response of compound in presence of fixed concentration of GLP-1(9-36), GLP-1R CRE-bla CHO-K1 cells, read-out: EC20 GLP-1(9-36) PAM EC50

| SMILES | EC50 [nM] |
| --- | --- |
| Cc1ccc(-c2ccc(-c3cnc(-c4ccc(C[C@H](NC(=O)c5ccc(C(C)(C)C)s5)C(=O)N[C@H](C)C(=O)O)cc4)nc3)c(F)c2)cc1 [Compound 1172] | 800 to 2500 |
| CCCCCCCOc1ccc(-c2cnc(-c3ccc(C[C@H](NC(=O)c4ccc(C(C)(C)C)s4)C(=O)N[C@@H](CC(=O)N[C@@H](C)C(=O)O)C(=O)O)cc3)nc2)cc1 [Compound 516] | < 800 |
| CCCCCCCOc1ccc2nc(-c3ccc(C[C@H](NC(=O)c4ccc(C(C)(C)C)cc4)C(=O)N[C@H](C)C(=O)O)cc3)ccc2c1 [Compound 806] | 800 to 2500 |
| CCCCCCCOc1ccc(-c2cnc(-c3ccc(C[C@H](NC(=O)c4ccc(C(C)(C)C)s4)C(=O)NC(C)(C)C(=O)O)cc3)nc2)cc1 [Compound 406] | 800 to 2500 |
| CCCCOc1c(OC)ccc(-c2cnc(-c3ccc(C[C@H](NC(=O)c4ccc(C(C)(C)C)s4)C(=O)N[C@H](C)C(=O)O)cc3)nc2)c1F [Compound 1022] | 2500 to 5000 |
| CC(C)(C)c1ccc(C(=O)N[C@@H](Cc2ccc(-c3ncc(-c4ccc(OCC(F)(F)F)cc4)cn3)cc2)C(=O)NC(C(=O)O)C(O)c2ccccc2)s1 (some centres unmarked) [Compound 928] | 2500 to 5000 |
| CCCCCCCOc1ccc(-c2cnc(-c3ccc(C[C@H](NC(=O)c4ccc(C(C)(C)C)cc4)C(=O)NC(Cc4c[nH]c5ncccc45)C(=O)O)cc3)nc2)cc1 (some centres unmarked) [Compound 584] | 800 to 2500 |
| CCCCCCCOc1ccc(-c2cnc(-c3ccc(C[C@H](NC(=O)c4ccc(C(C)(C)C)s4)C(=O)N[C@H](C(=O)O)[C@@H](O)c4ccccc4)cc3)nc2)cc1 [Compound 665] | 800 to 2500 |
| CCCCCCCOc1ccc(-c2cnc(-c3ccc(C[C@H](NC(=O)c4ccc(C(C)(C)C)cc4)C(=O)N[C@H](CCCCN)C(=O)O)cc3)nc2)cc1 [Compound 466] | 800 to 2500 |
| CCCCCCCOc1ccc(-c2cnc(-c3ccc(C[C@H](NC(=O)c4ccc(C(C)C)s4)C(=O)N4CC[C@H](C(=O)O)C4)cc3)nc2)cc1 [Compound 845] | 2500 to 5000 |
| CCCCCCCOc1ccc(-c2cnc(-c3ccc(C[C@H](NC(=O)c4ccc(C(C)(C)C)cc4)C(=O)N[C@@H](CCCCN)C(=O)O)cc3)nc2)cc1 [Compound 492] | 5000 to 10000 |
| CC[C@H]1CC[C@H](c2ccc(-c3cnc(-c4ccc(C[C@H](NC(=O)c5ccc(C(C)(C)C)nc5)C(=O)N5CC(C(=O)O)C5)cc4)nc3)cc2)CC1 [Compound 1163] | < 800 |
| Cc1ccc(C(O)c2ccc(-c3cnc(-c4ccc(C[C@H](NC(=O)c5ccc(C(C)(C)C)s5)C(=O)N[C@H](C)C(=O)O)cc4)nc3)cc2)cc1 (some centres unmarked) [Compound 1030] | 5000 to 10000 |

Other lines, results leading:

| EC50 [nM] | SMILES |
| --- | --- |
| 800 to 2500 | CCCCCCCOc1ccc(-c2cnc(-c3ccc(C[C@H](NC(=O)c4ccc(C(C)C)cc4)C(=O)NCCC(=O)O)cc3)nc2)cc1 [Compound 446] |
| 2500 to 5000 | CCCCCC(=O)c1ccc(-c2cnc(-c3ccc(C[C@H](NC(=O)c4ccc(C(C)(C)C)s4)C(=O)N4CC[C@H](C(=O)O)C4)cc3)nc2)cc1 [Compound 766] |
| 800 to 2500 | CCCCCCCOc1ccc(-c2cnc(-c3ccc(C[C@H](NC(=O)c4ccc(C(C)(C)C)s4)C(=O)N[C@@H](Cc4cccnc4)C(=O)O)cc3)nc2)cc1 [Compound 616] |
| < 800 | CCCCCCCOc1ccc(-c2cnc(-c3ccc(CC(NC(=O)c4ccc(C(C)(C)C)s4)C(=O)N[C@@H](CCSC)C(=O)O)cc3)nc2)cc1 (some centres unmarked) [Compound 416] |
| < 800 | CC(C)(C)c1ccc(C(=O)N[C@@H](Cc2ccc(-c3ncc(-c4ccc(-c5cc(Cl)cc(Cl)c5)cc4F)cn3)cc2)C(=O)N2CC(C(=O)O)C2)s1 [Compound 1198] |
| < 800 | CCCCCCCOc1ccc(-c2cnc(-c3ccc(C[C@H](NC(=O)c4ccc(C(C)(C)C)cc4)C(=O)NC(C(=O)O)C(O)c4ccccc4)cc3)nc2)cc1 (some centres unmarked) [Compound 570] |
| < 800 | CC[C@H]1CC[C@H](c2ccc(-c3cnc(-c4ccc(C[C@H](NC(=O)c5ccc(C(C)(C)C)s5)C(=O)N5CC[C@H](C(=O)O)C5)cc4)nc3)cc2)CC1 [Compound 1137] |
| 2500 to 5000 | CC[C@H]1CC[C@H](c2ccc(N3CCN(c4ccc(C[C@H](NC(=O)c5ccc(C(C)(C)C)s5)C(=O)N5CC(C(=O)O)C5)cc4)CC3)cc2)CC1 [Compound 1060] |
| < 800 | CCCCCCCOc1ccc(-c2cnc(-c3ccc(C[C@H](NC(=O)c4ccc(C(C)(C)C)s4)C(=O)NC(C(=O)O)[C@@H](O)c4ccccc4)cc3)nc2)cc1 (some centres unmarked) [Compound 651] |
| 800 to 2500 | Cc1ccc(/C=C/c2cnc(-c3ccc(C[C@H](NC(=O)c4ccc(C(C)(C)C)s4)C(=O)N4CCC[C@H]4C(=O)O)cc3)nc2)cc1 [Compound 1125] |
| 800 to 2500 | CCCCCCCOc1ccc(-c2cnc(-c3ccc(C[C@H](NC(=O)c4ccc(C(C)(C)C)s4)C(=O)N4CCC(CC(=O)O)C4)cc3)nc2)cc1 (some centres unmarked) [Compound 613] |
| 800 to 2500 | CCCCCCCOc1ccc(-c2cnc(-c3ccc(C[C@H](NC(=O)c4ccc(C(C)(C)C)cc4)C(=O)NC(CC(=O)O)c4ccc(OC)cc4)cc3)nc2)cc1 (some centres unmarked) [Compound 552] |
| < 800 | CCCCCCCOc1ccc(-c2cnc(-c3ccc(C[C@H](NC(=O)c4ccc(C(C)(C)C)cc4)C(=O)N[C@@H](CCC(N)=O)C(=O)O)cc3)nc2)cc1 [Compound 399] |
